# Experimental data reported in patent US20110237672A1, “Use of a cysteine-containing substance to increase the ventilatory activity and erythropoietin production” (2458781 CANADA INC., priority 2001, published 2011).
# Experiments:
# Assay type in all cases: in vivo, human
# erythropoietin (EPO) = assay: placebo-controlled double-blind study: EPO concentration by EPO ELISA kit
# Procedure: (§1) The placebo-controlled double-blind study was performed with healthy, normotonic male non-smoking subjects. The subjects had not taken alcohol, caffeine, or any medication at least during the last 24 hours prior to the study. Also, they had not been engaged in extensive physical exercise for at least 12 hours prior to the study. Twenty-eight subjects were recruited into the study and randomized for the treatment with NAC or placebo. NAC (200 mg capsules) or placebo were administered in three doses of 600 mg per day at 8.00 a.m., 4.00 p.m. and 11.00 p.m. The plasma concentrations of acid soluble thiol (mainly cysteine) and cystine (cysteine disulfide) were determined in the cubital venous blood by a photometric assay and by the amino acid analyzer, respectively. […] The EPO concentration in serum was determined by the help of a commercial EPO ELISA kit.
# [1] = placebo-controlled double-blind study: plasma acid soluble thiol and thiol/disulfide redox status; settings: healthy male subjects, NAC three doses of 600 mg per day, vs placebo-treated group
# Procedure: as §1
# oxygen sensors = assay: placebo-controlled double-blind study: isocapnic hypoxic ventilatory response
# Procedure: The placebo-controlled double-blind study was performed with healthy, normotonic male non-smoking subjects. The subjects had not taken alcohol, caffeine, or any medication at least during the last 24 hours prior to the study. Also, they had not been engaged in extensive physical exercise for at least 12 hours prior to the study. Twenty-eight subjects were recruited into the study and randomized for the treatment with NAC or placebo. NAC (200 mg capsules) or placebo were administered in three doses of 600 mg per day at 8.00 a.m., 4.00 p.m. and 11.00 p.m. In addition, the hypoxic ventilatory response of the subjects was quantitatively determined. The ventilatory activity was determined under two different experimental conditions using an equipment of oxychon-beta. The first measurement, the so-called “isocapnic hypoxic ventilatory response” (isocapnic HVR), was tested under normoxic conditions, i.e., under conditions of normal oxygen concentration and constant carbon dioxide concentration. The second measurement, the so-called poikilocapnic hypoxic ventilatory response (poikilocapnic HVR), was determined under normobaric conditions in a hypoxia chamber with a constant FiO2 of 12%. The term “poikilocapnic” describes study conditions characterized by a variable carbon dioxide concentration in the expiratory air, whereas the term “isocapnic” refers to conditions with a constant carbon dioxide concentration.
# [2] = summary statement of the placebo-controlled double-blind study
smiles,measurement,setting,value
"CC(=O)N[C@@H](CS)C(=O)O [NAC, N-acetylcysteine]","plasma EPO concentration after exposure to the hypoxia chamber (Eh), relative change","erythropoietin (EPO); 2 hrs after the 6-hr-exposure to the hypoxia chamber, vs placebo-treated group, P<0.05 (FIG. 1)",increased
same,"plasma EPO concentration (E), relative change","erythropoietin (EPO); before exposure to the hypoxia chamber, vs placebo-treated group, P<0.05 (FIG. 1)",increased
same,increase in plasma EPO concentration (E) between time 1 and time 2,"erythropoietin (EPO); before vs 5 days after start of treatment, P value <0.05 (FIG. 2)",significantly different from that of the placebo-treated control group
same,plasma erythropietin concentration,erythropoietin (EPO); [2],increase
same,"plasma thiol concentration (T), relative change",[1]; P<0.01 (FIG. 1),significantly increased
same,"plasma thiol/disulfide redox status (thiol^2 disulfide^−1), relative change",[1]; P<0.05 (FIG. 1),increased
same,"increase in ventilatory activity (H, isocapnic hypoxic ventilatory response) between time 1 and time 2","oxygen sensors; before vs 4 days after start of treatment, P value <0.01 (FIG. 2)",significantly different from that of the placebo-treated control group
same,"isocapnic hypoxic ventilatory response (H), relative change","oxygen sensors; healthy male subjects, NAC three doses of 600 mg per day, vs placebo-treated group (FIG. 1)",significantly increased
same,ventilatory activity,oxygen sensors; [2],increase
